What was measured:
[1] = tested on: lymphoma lines (SKIDLBCL and RL); test: XTT cell proliferation, lymphoma lines; assay type: cell-based, human
[2] = tested on: paclitaxel resistant human lung carcinoma A549/Taxol xenograft; settings: 20 mg/kg
[3] = tested on: human colon carcinoma HCT-116 xenograft; settings: 96 h
[4] = tested on: paclitaxel resistant human lung carcinoma A549/Taxol xenograft; settings: 20 mg/kg, Q2Dx7, 6 hr-i.v. infusion; cited from earlier work
[5] = tested on: human colon carcinoma HCT-116 xenograft; test: HCT-116 xenograft in nude mice; settings: for Tumor relapse during follow-up to D200: Fludelone 20 and 30 mg/kg; for Tumor free following the cessation of treatment: mouse, in vivo

C/C(=C\c1csc(C)n1)[C@@H]1C/C=C(/C(F)(F)F)C/C=C/[C@H](C)[C@H](O)[C@@H](C)C(=O)C(C)(C)[C@@H](O)CC(=O)O1 [Compound 29, 26-trifluoro-trans-9,10-dehydro-12,13-desoxyepothilone B]
Inhibitory doses in two NHL lines relative to doses effective in MM [1]: 5-10 fold | IC50 ([1]; Homo sapiens, XTT): 60 to 80 nM | Tumor reduction, % of the pretreatment control [2]: 24.4% | Cell kill [3]: > 11.6 log | Effect on A549/Taxol xenograft (recent report) [4]: complete tumor growth suppression but failed to achieve tumor disappearance | Maximal body weight loss without lethality ([5]; 30 mg/kg, end of the 2nd cycle (D29)): 30% | Tumor relapse during follow-up to D200 ([5]; Taxol 20 mg/kg): no tumor relapse | Tumor relapse during follow-up to D200 ([5]; Taxol 20 mg/kg, listed as F3-deH-dEpoB): no tumor relapse in 4 out of 4 mice on D200 | Tumor disappearance (mice) ([5]; Q2Dx4, 6 hr-i.v. infusion for 3 cycles, F3-deH-dEpoB 20 and 30 mg/kg, Taxol 20 mg/kg): 4 out of 4 | Tumor free following the cessation of treatment ([5]; listed as 26-trifluoro-9,10-trans-dehdyro-epothilone D): over 5.2 months | Tumor free following the cessation of treatment ([5]; listed as Fludelone): over 5.3 months
